Measured values as given in PubChem BioAssay AID1919017 (Molecular Pharmacology Branch, DTP, NCI, 2023).

Tested on: SW1271 complex spheroids with HUVEC/MSC, growth, % test/control
Test: Anticancer human tumor SW1271 cell line growth inhibition [AhR];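 also: spheroids exposed to agents for 7 days before readout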
Settings: for IC50: curve of first compound; for viability, T/C: stronger effect = lower value
Method in brief: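 Agents were dosed in half-log steps down from roughly clinical Cmax, or from 10 microM where Cmax was unknown, alone and with AhR antagonists. Read-out: percent test/control growth of tumor spheroids containing HUVEC and MSC stromal cells.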

[1] = second compound 0.1 µM, first compound 0.0316 µM
[2] = second compound 0.1 µM, first compound 0.1 µM
[3] = second compound 0.1 µM, first compound 0.316 µM
[4] = second compound 0.1 µM, first compound 1 µM
[5] = second compound 0.1 µM, first compound 3.16 µM
[6] = second compound 0.1 µM, first compound 10 µM
[7] = second compound 0.316 µM, first compound 0.0316 µM
[8] = second compound 0.316 µM, first compound 0.1 µM
[9] = second compound 0.316 µM, first compound 0.316 µM
[10] = second compound 0.316 µM, first compound 1 µM
[11] = second compound 0.316 µM, first compound 3.16 µM
[12] = second compound 0.316 µM, first compound 10 µM
[13] = second compound 1 µM, first compound 0.0316 µM
[14] = second compound 1 µM, first compound 0.1 µM
[15] = second compound 1 µM, first compound 0.316 µM
[16] = second compound 1 µM, first compound 1 µM
[17] = second compound 1 µM, first compound 3.16 µM
[18] = second compound 1 µM, first compound 10 µM
[19] = second compound 3.16 µM, first compound 0.0316 µM
[20] = second compound 3.16 µM, first compound 0.1 µM
[21] = second compound 3.16 µM, first compound 0.316 µM
[22] = second compound 3.16 µM, first compound 1 µM
[23] = second compound 3.16 µM, first compound 3.16 µM
[24] = second compound 3.16 µM, first compound 10 µM
[25] = second compound 10 µM, first compound 0.0316 µM
[26] = second compound 10 µM, first compound 0.1 µM
[27] = second compound 10 µM, first compound 0.316 µM
[28] = second compound 10 µM, first compound 1 µM
[29] = second compound 10 µM, first compound 3.16 µM
[30] = second compound 10 µM, first compound 10 µM

For `Nc1ccccc1NC(=O)c1ccc(CNC(=O)OCc2cccnc2)cc1` + Cc1ccccc1N=Nc1ccc(NC(=O)c2ccnn2C)c(C)c1, the IC50 (second compound 0.1 µM) was 1860 nM, the IC50 (second compound 0.316 µM) was 2770 nM and the IC50 (second compound 1 µM) was 2110 nM. For the same compound, the IC50 (second compound 3.16 µM) was 1740 nM, the IC50 (second compound 10 µM) was 1460 nM and the viability, T/C [1] was 76.7%. For the same compound, the viability, T/C [2] was 135%, the viability, T/C [3] was 91% and the viability, T/C [4] was 62.1%. The viability, T/C [5] was 41.5%, the viability, T/C [6] was 13.6% and the viability, T/C [7] was 90.2%. The viability, T/C [8] was 103%, the viability, T/C [9] was 93.8% and the viability, T/C [10] was 86%. For the same compound, the viability, T/C [11] was 45.3%, the viability, T/C [12] was 18% and the viability, T/C [13] was 101%. For the same compound, the viability, T/C [14] was 100%, the viability, T/C [15] was 90.7% and the viability, T/C [16] was 63.1%. The viability, T/C [17] was 43.7%, the viability, T/C [18] was 19.9% and the viability, T/C [19] was 119%. It also gave a viability, T/C [20] of 120%, a viability, T/C [21] of 90.2% and a viability, T/C [22] of 64.3%. For the same compound, the viability, T/C [23] was 36.5%, the viability, T/C [24] was 23.7% and the viability, T/C [25] was 89%. For the same compound, the viability, T/C [26] was 94%, the viability, T/C [27] was 86.6% and the viability, T/C [28] was 52.6%. For the same compound, the viability, T/C [29] was 41.2% and the viability, T/C [30] was 22.8%.

For `O=C(C=Cc1cccc(S(=O)(=O)Nc2ccccc2)c1)NO` + Cc1ccccc1N=Nc1ccc(NC(=O)c2ccnn2C)c(C)c1, the IC50 (second compound 0.1 µM) was 941 nM, the IC50 (second compound 0.316 µM) was 1430 nM and the IC50 (second compound 1 µM) was 763 nM. For the same compound, the IC50 (second compound 3.16 µM) was 1550 nM, the IC50 (second compound 10 µM) was 1860 nM and the viability, T/C [1] was 86%. The viability, T/C [2] was 87.1%, the viability, T/C [3] was 61.9% and the viability, T/C [4] was 54.3%. For the same compound, the viability, T/C [5] was 26.5%, the viability, T/C [6] was 17.8% and the viability, T/C [7] was 84.3%. The viability, T/C [8] was 91%, the viability, T/C [9] was 64.6% and the viability, T/C [10] was 59.8%. It also gave a viability, T/C [11] of 35.5%, a viability, T/C [12] of 18.9% and a viability, T/C [13] of 105%. For the same compound, the viability, T/C [14] was 98.6%, the viability, T/C [15] was 68.5% and the viability, T/C [16] was 48.1%. It also gave a viability, T/C [17] of 23.1%, a viability, T/C [18] of 28.4% and a viability, T/C [19] of 84.4%. The viability, T/C [20] was 94%, the viability, T/C [21] was 86.8% and the viability, T/C [22] was 57.5%. For the same compound, the viability, T/C [23] was 36.7%, the viability, T/C [24] was 22.3% and the viability, T/C [25] was 104%. It also gave a viability, T/C [26] of 71.2%, a viability, T/C [27] of 88.2% and a viability, T/C [28] of 57.6%. It also gave a viability, T/C [29] of 38.3% and a viability, T/C [30] of 26.1%.

For `O=C(c1cc(Cc2n[nH]c(=O)c3ccccc23)ccc1F)N1CCN(C(=O)C2CC2)CC1` + Cc1ccccc1N=Nc1ccc(NC(=O)c2ccnn2C)c(C)c1, the IC50 (second compound 0.1 µM) was > 10000 nM, the IC50 (second compound 0.316 µM) was > 10000 nM and the IC50 (second compound 1 µM) was > 10000 nM. For the same compound, the IC50 (second compound 3.16 µM) was > 10000 nM, the IC50 (second compound 10 µM) was > 10000 nM and the viability, T/C [1] was 82.5%. It also gave a viability, T/C [2] of 101%, a viability, T/C [3] of 98.3% and a viability, T/C [4] of 91.4%. It also gave a viability, T/C [5] of 88.4%, a viability, T/C [6] of 78.9% and a viability, T/C [7] of 106%. The viability, T/C [8] was 104%, the viability, T/C [9] was 102% and the viability, T/C [10] was 98.7%. For the same compound, the viability, T/C [11] was 96.3%, the viability, T/C [12] was 90.8% and the viability, T/C [13] was 79.5%. It also gave a viability, T/C [14] of 116%, a viability, T/C [15] of 104% and a viability, T/C [16] of 92.5%. It also gave a viability, T/C [17] of 114%, a viability, T/C [18] of 98.3% and a viability, T/C [19] of 94.3%. For the same compound, the viability, T/C [20] was 109%, the viability, T/C [21] was 104% and the viability, T/C [22] was 81.9%. For the same compound, the viability, T/C [23] was 99.2%, the viability, T/C [24] was 100% and the viability, T/C [25] was 89.4%. For the same compound, the viability, T/C [26] was 107%, the viability, T/C [27] was 108% and the viability, T/C [28] was 83.5%. The viability, T/C [29] was 89.5% and the viability, T/C [30] was 102%.
